Measurements reported in US7544668B2, “Saponins derived from Ilex pubescens and method of purifying the same” (priority 2006, dated 2009).

Experiments:
[1] = tested on: histamine-induced paw edema; assay: histamine induced paw edema in rats; type: in vivo, SD rats; conditions: 10 mg/kg oral
Method: Animal Material. Male and female ICR mice weighing 18-24 g and male SD rats weighing 150-210 g were purchased from the Laboratory Animal Services Center, the Chinese University of Hong Kong, Hong Kong. The animals were acclimated for more than 1 week under 12 hours light and 12 hours dark cycle at room temperature of 22±1° C. Chow diet and water were provided ad libitum. Animal care and treatment procedures conformed to the Institutional Guidelines and Animal Ordinance (Department of Health, Hong Kong Special Administrative Region.) Mice and rats were fasted for 16 hours and 48 hours, respectively, before experiment. Mode of Administration. The PSF solutions for anti-inflammatory and analgesic experiments were prepared by dissolving the product in 30% propanediol solution (for i.p. injection) and 0.5% (w/v) carboxymethylcellulose sodium salt (CMC—Na) (for orally administration), respectively. The reference drug indomethacin for anti-inflammatory test was dissolved in a vehicle that consisted of 10% peanut oil, 10% Tween-80 and 80% distilled water. Rotundine was suspended in 0.5% (w/v) CMC—Na salt and used as reference drug for anti-nociceptive experiment. The volumes (ml) of both hind paws were measured using a plethysmometer (Plethysmometer 7150, UGO Basile, Italy) at 1 hour before the induction and 1, 2, 3, 4, 6, and 8 hours after the induction. The increased volumes (paw edema) of the right hind paws of rats were calculated by the following equation: the increased rate (%)=(B−A)/A×100, where A and B represent the paw volumes before and at different time points after the induction, respectively. The acute inflammation in the hind paws was induced by the subcutaneous injection of 0.05 ml 1% prepared solutions of histamine into right hind paws of rats. The left hind paws were used as controls. Administration of PSF (12.5 mg/kg, 25 mg/kg, 50 mg/kg, 100 mg/kg body weight, i.p. injection), or of the vehicle (30% propanediol) was performed at 10 minutes prior to carrageenan injection. Indomethacin was orally administrated at 1 hour before the induction. The volumes of the injected and control paws were measured at different time points designed from 0.5 to 4 hours after injection of histamine. The increased rates in paw volume were calculated in the same way as in carrageenan.

[2] = tested on: carrageenan-induced paw edema; assay: carrageenan induced paw edema in rats; type: in vivo, SD rats; conditions: 10 mg/kg oral
Method: Animal Material. Male and female ICR mice weighing 18-24 g and male SD rats weighing 150-210 g were purchased from the Laboratory Animal Services Center, the Chinese University of Hong Kong, Hong Kong. The animals were acclimated for more than 1 week under 12 hours light and 12 hours dark cycle at room temperature of 22±1° C. Chow diet and water were provided ad libitum. Animal care and treatment procedures conformed to the Institutional Guidelines and Animal Ordinance (Department of Health, Hong Kong Special Administrative Region.) Mice and rats were fasted for 16 hours and 48 hours, respectively, before experiment. Mode of Administration. The PSF solutions for anti-inflammatory and analgesic experiments were prepared by dissolving the product in 30% propanediol solution (for i.p. injection) and 0.5% (w/v) carboxymethylcellulose sodium salt (CMC—Na) (for orally administration), respectively. The reference drug indomethacin for anti-inflammatory test was dissolved in a vehicle that consisted of 10% peanut oil, 10% Tween-80 and 80% distilled water. Rotundine was suspended in 0.5% (w/v) CMC—Na salt and used as reference drug for anti-nociceptive experiment. The experiment was conducted as previously described by Winter^1. At the induction, each rat was injected with 0.1 ml freshly prepared carrageenan (1% w/v) in physiological saline (0.9% w/v NaCl) into subplantar tissues of the right hind paw. The left hind paws without injection were used as controls. PSF was i.p. administrated 10 minutes prior to carrageenan injection. Control animals received an appropriate volume of 30% propanediol. Indomethacin was orally administrated 1 hr before the carrageenan injection as a reference drug. The volumes (ml) of both hind paws were measured using a plethysmometer (Plethysmometer 7150, UGO Basile, Italy) at 1 hour before the induction and 1, 2, 3, 4, 6, and 8 hours after the induction. The increased volumes (paw edema) of the right hind paws of rats were calculated by the following equation: the increased rate (%)=(B−A)/A×100, where A and B represent the paw volumes before and at different time points after the induction, respectively.

[3] = tested on: radiant heat stimulation-induced tail flick reaction; assay: tail flick test, radiant heat stimulation in mice; type: in vivo, ICR mice; conditions: for Tail flick reaction time: 50 mg/kg oral
Method: Animal Material. Male and female ICR mice weighing 18-24 g and male SD rats weighing 150-210 g were purchased from the Laboratory Animal Services Center, the Chinese University of Hong Kong, Hong Kong. The animals were acclimated for more than 1 week under 12 hours light and 12 hours dark cycle at room temperature of 22±1° C. Chow diet and water were provided ad libitum. Animal care and treatment procedures conformed to the Institutional Guidelines and Animal Ordinance (Department of Health, Hong Kong Special Administrative Region.) Mice and rats were fasted for 16 hours and 48 hours, respectively, before experiment.
Mode of Administration. The PSF solutions for anti-inflammatory and analgesic experiments were prepared by dissolving the product in 30% propanediol solution (for i.p. injection) and 0.5% (w/v) carboxymethylcellulose sodium salt (CMC—Na) (for orally administration), respectively. The reference drug indomethacin for anti-inflammatory test was dissolved in a vehicle that consisted of 10% peanut oil, 10% Tween-80 and 80% distilled water. Rotundine was suspended in 0.5% (w/v) CMC—Na salt and used as reference drug for anti-nociceptive experiment.
The anti-nociceptive effects of PSF and the reference drug, expressed as the time required for mice tail flick after exposure to a source of radiant heat, were evaluated according to the description of d'Amour^3. […] The tail-flick response was elicited by applying radiant heat to the point ⅓ of length away from the tip of the tail. The apparatus was arranged so that when the operator turned on the lamp a timer was activated. When the mice felt pain and flicked its tail, light fell on the photocell such that the timer was automatically stopped. The intensity of the heat stimulus in the tail-flick test was adjusted so that the animal flicked its tail within 3 to 6 seconds. A 12 seconds cut-off time was set in order to prevent tail tissues from damage. Before the experiment, the heat stimulation latency of all animals was tested, and those with response time to heat stimulation from […] were excluded. The tail-flick response was measured at 0.5, 1, and 2 hours after oral administration of PSF (200, 100 and 50 mg/kg body weight) or rotundine (50 mg/kg, as reference drug) or vehicle.

[4] = tested on: acetic acid induced writhing response; assay: abdominal writhing test induced by acetic acid in mice; type: in vivo, ICR mice
Method: Animal Material. Male and female ICR mice weighing 18-24 g and male SD rats weighing 150-210 g were purchased from the Laboratory Animal Services Center, the Chinese University of Hong Kong, Hong Kong. The animals were acclimated for more than 1 week under 12 hours light and 12 hours dark cycle at room temperature of 22±1° C. Chow diet and water were provided ad libitum. Animal care and treatment procedures conformed to the Institutional Guidelines and Animal Ordinance (Department of Health, Hong Kong Special Administrative Region.) Mice and rats were fasted for 16 hours and 48 hours, respectively, before experiment. Mode of Administration. The PSF solutions for anti-inflammatory and analgesic experiments were prepared by dissolving the product in 30% propanediol solution (for i.p. injection) and 0.5% (w/v) carboxymethylcellulose sodium salt (CMC—Na) (for orally administration), respectively. The reference drug indomethacin for anti-inflammatory test was dissolved in a vehicle that consisted of 10% peanut oil, 10% Tween-80 and 80% distilled water. Rotundine was suspended in 0.5% (w/v) CMC—Na salt and used as reference drug for anti-nociceptive experiment. The abdominal writhing test induced by chemical stimulation of acetic acid was performed in mice as originally described by Siegmund^2. […] Rotundine was orally administrated 1 hour before acetic acid injection. After intraperitoneal injection of 0.2 ml acetic acid (0.8% w/v) in physiological saline (0.9% w/v NaCl), animals were isolated for observation. The numbers of abdominal writhing syndrome/events, which consisted of the contraction of the abdominal area with extension of hind legs, were recorded during a 15 minutes period in each animal.

[5] = oral, in comparison with vehicle-treated animals

COc1ccc2c(c1)c(CC(=O)O)c(C)n2C(=O)c1ccc(Cl)cc1 [Indomethacin]
Change in paw swelling after histamine injection (%) ([1]; 0.5 h after histamine): 29.72 ± 10.67% | Change in paw swelling after histamine injection (%) ([1]; 1 h after histamine): 14.64 ± 9.21 % | Change in paw swelling after histamine injection (%) ([1]; 2 h after histamine): 11.51 ± 6.61 % | Change in paw swelling after histamine injection (%) ([1]; 3 h after histamine): 11.35 ± 7.35% | Change in paw swelling after histamine injection (%) ([1]; 4 h after histamine): 7.43 ± 6.05 % | Change in paw swelling after histamine injection (%) ([1]; 6 h after histamine): 4.17 ± 6.05% | effect on histamine-induced edema ([1]; at a later time than PSF): significant inhibitory effect | Changes in swelling percentage after carrageenan injection (%) ([2]; 1 h after carrageenan): 8.54 ± 4.97 % | Changes in swelling percentage after carrageenan injection (%) ([2]; 2 h after carrageenan): 10.80 ± 7.77 % | Changes in swelling percentage after carrageenan injection (%) ([2]; 3 h after carrageenan): 9.49 ± 6.63 % | Changes in swelling percentage after carrageenan injection (%) ([2]; 4 h after carrageenan): 13.53 ± 10.13 % | Changes in swelling percentage after carrageenan injection (%) ([2]; 6 h after carrageenan): 17.43 ± 9.21 % | Changes in swelling percentage after carrageenan injection (%) ([2]; 8 h after carrageenan): 34.70 ± 9.21%

COc1cc2c(cc1OC)[C@@H]1Cc3ccc(OC)c(OC)c3CN1CC2 [Rotundine]
Tail flick reaction time ([3]; 0.5 h after administration): 7.552 ± 3.301 s | Tail flick reaction time ([3]; 1 h after administration): 11.044 ± 1.658 s | Tail flick reaction time ([3]; 2 h after administration): 9.813 ± 3.069 s | Tail flick reaction time ([3]; time 0): 4.223 ± 0.458 s | effect on tail flick reaction time of mice [3, 5]: prolonged the reaction time | Inhibition (%) ([4]; 50 mg/kg oral 1 hour before acetic acid): 100% | Writhing count ([4]; 50 mg/kg oral 1 hour before acetic acid, 15 minutes period): 0.00 ± 0.00 | effect on number of writhing episodes of mice [4, 5]: complete analgesia
